# Laboratory results as given in US20260374781A1, “NOVEL TRIHETEROCYCLIC COMPOUNDS” (IDENCE CO., LTD., priority 2022, published 2026).
# Assays:
# [1] = test system: AsPC-1 cells; test: Cell Proliferation Assay, AsPC-1 (CellTiter-Glo 2.0 viability); type: cell-based; conditions: AsPC-1 pancreatic cancer (KRAS G12D mutation)
# Protocol: (§1) Test Example 3: Cell Proliferation Assay
# (§2) Cell viability testing of test compounds in AsPC-1 pancreatic cancer (KRAS G12D mutation) or SW480 colon cancer (KRAS G12V mutation) cells for 72 hours
# (§3) The reference compound Staurosporine was purchased from Sigma-Aldrich (Saint Louis, MI), and CellTiter-Glo® 2.0 Luminescent cell viability assay reagent (cat #G9243) was purchased from Promega (Madison, WI). AsPC-1 and SW480 cell lines were purchased from American Type Culture Collection (Manassas, VA). AsPC-1 cells were cultured with RPMI-1640 (ATCC, cat #30-2001) and SW480 cells were cultured with DMEM (ATCC cat #30-2002).
# (§4) A medium supplemented with 10% FBS (Sigma-Aldrich, cat #F2442) and 100 µg/mL of penicillin-streptomycin (Sigma-Aldrich, cat #P4333) was used. Cells were cultured at 37 °C in a humidified atmosphere of 5% CO2 and 95% air.
# (§5) • 1. The test compound and reference compound, Staurosporine were dissolved in DMSO solution to prepare 20 mM (test compound) and 10 mM (control compound, Staurosporine) in the Source Plate and diluted with DMSO to 3-fold and 10 doses. • 2. From the Source Plate, 10 volumes of 125 nL test compound or 25 nL reference compound were dispensed into wells of a 384-well culture plate (VWR, cat #82050-076) using Echo 655. • 3. 25 μL of culture medium including 2000 AsPC-1 or SW480 cells was dispensed into each 384-well cell culture plate. • 4. Cells were cultured with the compound for 72 hours at 37 °C and 5% CO2 conditions. • 5. 25 μL of CellTiter-Glo 2.0 reagent was added to each well of the plate. • 6. The contents were mixed for 2 minutes on an orbital shaker, and the luminescence signal was stabilized at room temperature for 15 minutes. • 7. Luminescence signals were measured with an Envision 2104 Multilabel Reader (PerkinElmer, Santa Clara, CA), and the number of surviving cells was determined through quantification of ATP present in each culture. • 8. IC50 values were calculated based on the Sigmoidal dose-response equation in the GraphPad Prism 4 program.
# [2] = test system: SW480 cells; test: Cell Proliferation Assay, SW480 (CellTiter-Glo 2.0 viability); type: cell-based; conditions: Homo sapiens; SW480 colon cancer (KRAS G12V mutation); 72 hours
# Protocol: as §1, §2, §3, §4, §5
"IC50 ([1]; Homo sapiens, ASPC1, 72 h) [nM]",IC50 [2] [nM],IC50 ([1]; 72 hours) [nM],Structure (SMILES)
1000 to 10000,1000 to 10000,,"C#Cc1c(F)ccc2cc(O)cc(-c3nc4c5c(nc(OC[C@@]67CCCN6C[C@H](F)C7)nc5c3F)N([C@H](C)c3cccnc3N)C[C@H](C)O4)c12 [Example 6a, 4-((S)-10-((R)-1-(2-aminopyridin-3-yl)ethyl)-4-fluoro-2-(((2R,7aS)-2-fluorotetrahydro-1H-pyrrolizin-7a(5H)-yl)methoxy)-8-methyl-9,10-dihydro-8H-7-oxa-1,3,6,10-tetraazacyclohepta[de]naphthalen-5-yl)-5-ethynyl-6-fluoronaphthalen-2-ol]"
1000 to 10000,< 1000,,"C#Cc1c(F)ccc2cc(O)cc(-c3nc4c5c(nc(OCC6(CN7CCOCC7)CC6)nc5c3F)N(C(C)c3cccnc3N)CCO4)c12 (stereo not drawn) [Example 12, 4-(10-(1-(2-aminopyridin-3-yl)ethyl)-4-fluoro-2-((1-(morpholinomethyl)cyclopropyl)methoxy)-9,10-dihydro-8H-7-oxa-1,3,6,10-tetraazacyclohepta[de]naphthalen-5-yl)-5-ethynyl-6-fluoronaphthalen-2-ol]"
< 1000,< 1000,,"C#Cc1c(F)ccc2cc(O)cc(-c3nc4c5c(nc(OC[C@@]67CCCN6C[C@H](F)C7)nc5c3F)N([C@H](C)c3cccnc3N)CCO4)c12 [Example 13a, 4-(10-((R)-1-(2-aminopyridin-3-yl)ethyl)-4-fluoro-2-(((2R,7aS)-2-fluorotetrahydro-1H-pyrrolizin-7a(5H)-yl)methoxy)-9,10-dihydro-8H-7-oxa-1,3,6,10-tetraazacyclohepta[de]naphthalen-5-yl)-5-ethynyl-6-fluoronaphthalen-2-ol]"
< 1000,< 1000,,"CCc1c(F)ccc2cc(O)cc(-c3nc4c5c(nc(OC[C@@]67CCCN6C[C@H](F)C7)nc5c3F)N([C@H](C)c3cccnc3N)CCO4)c12 [Example 14a, 4-(10-((R)-1-(2-aminopyridin-3-yl)ethyl)-4-fluoro-2-(((2R,7aS)-2-fluorotetrahydro-1H-pyrrolizin-7a(5H)-yl)methoxy)-9,10-dihydro-8H-7-oxa-1,3,6,10-tetraazacyclohepta[de]naphthalen-5-yl)-5-ethyl-6-fluoronaphthalen-2-ol]"
< 1000,< 1000,,"CCc1c(F)ccc2cc(O)cc(-c3nc4c5c(nc(OC[C@@]67CCCN6C[C@H](OC)C7)nc5c3F)N(C(C)c3cccnc3N)CCO4)c12 (stereo partly drawn) [Example 17, 4-(10-(1-(2-aminopyridin-3-yl)ethyl)-4-fluoro-2-(((2R,7aS)-2-methoxytetrahydro-1H-pyrrolizin-7a(5H)-yl)methoxy)-9,10-dihydro-8H-7-oxa-1,3,6,10-tetraazacyclohepta[de]naphthalen-5-yl)-5-ethyl-6-fluoronaphthalen-2-ol]"
,< 1000,,"C#Cc1c(F)ccc2cc(O)cc(-c3nc4c5c(nc(OC[C@@]67CCCN6C[C@H](F)C7)nc5c3F)N(C(C)c3ccccc3N)CCO4)c12 (stereo partly drawn) [Example 20, 4-(10-(1-(2-aminophenyl)ethyl)-4-fluoro-2-(((2R,7aS)-2-fluorotetrahydro-1H-pyrrolizin-7a(5H)-yl)methoxy)-9,10-dihydro-8H-7-oxa-1,3,6,10-tetraazacyclohepta[de]naphthalen-5-yl)-5-ethynyl-6-fluoronaphthalen-2-ol]"
,,1000 to 10000,"CC(c1cccnc1N)N1CCOc2c(Cl)c(-c3ccc(F)c4sc(N)c(C#N)c34)c(F)c3nc(OC[C@@]45CCCN4C[C@H](F)C5)nc1c23 (stereo partly drawn) [Example 29b, (4S)-2-amino-4-(4-(1-(2-aminopyridin-3-yl)ethyl)-8-chloro-10-fluoro-2-(((2R,7aS)-2-fluorotetrahydro-1H-pyrrolizin-7a(5H)-yl)methoxy)-5,6-dihydro-4H-[1,4]oxazepino[5,6,7-de]quinazolin-9-yl)-7-fluorobenzo[b]thiophene-3-carbonitrile]"
